Earlier results in patent US20150031700A1, “Methods of Treating Cutaneous Flushing Using Selective Alpha-2-adrenergic Receptor Agonists” (GALDERMA LABORATORIES INC., priority 2003, published 2015).

Tests used:
[1] = tested on: α2 adrenergic receptor; details: α2 vs α1 adrenergic receptor, compared with clonidine
[2] = tested on: α2 adrenergic receptor; details: compared with clonidine; Burke et al., 1996
[3] = toxicity studies; Walters, 1996

| selectivity for the α2 adrenergic receptor relative to clonidine [1] | Compound | α2 adrenergic receptor activity relative to clonidine [2] [fold] | oncogenic or teratogenic activity [3] | toxicity [3] |
| --- | --- | --- | --- | --- |
| 7-12 fold | Brc1c(NC2=NCCN2)ccc2nccnc12 [brimonidine] | – | – | – |
| – | brimonidine tartrate | 10 | no oncogenic or teratogenic activity | nontoxic |
